Data: ChEMBL document CHEMBL4765284, “Optimization of 5-substituted thiazolyl ureas and 6-substituted imidazopyridines as potential HIV-1 latency reversing agents” (Eur J Med Chem, 2020)

Experiments:
Cytomegalovirus = experiment: Antiviral activity against CMV infected in FlpIn-HEK293 cells assessed as click beetle green reporter driven gene expression incubated for 72 hrs by luciferase based cellular assay; assay type: functional, organism-based; conditions: HEK293, 72 h
[1] = system: Human immunodeficiency virus 1; experiment: Antiviral activity against HIV-1 infected in FlpIn-HEK293 cells assessed as activation of long terminal repeat driven gene expression incubated for 72 hrs by luciferase based cellular assay; assay type: functional, organism-based; conditions: Human immunodeficiency virus 1, HEK293, 72 h

| EC50 (Cytomegalovirus) [nM] | EC50 [1] [nM] | SMILES |
| --- | --- | --- |
| 1800 | 920 | O=C(Nc1ncc(Cl)s1)N1CCN(c2cc(C(F)(F)F)c(Cl)cn2)CC1 |
| 830 | 210 | Cc1cc(N2CCN(C(=O)Nc3ncc(Cl)s3)CC2)cnc1C#N |
| 1000 | 460 | Cc1cc(N2CCN(C(=O)Nc3ncc(Cl)s3)CC2)ncc1C#N |
| 5000 | 1700 | Cc1cnc(NC(=O)N2CCN(c3ccccc3)CC2)s1 |
| 2300 | 240 | Cc1ccc(N2CCN(C(=O)Nc3ncc(C#N)s3)CC2)cc1Cl |
| > 40000 | > 40000 | Cc1cc(NC2CCN(C(=O)Nc3ncc(Cl)s3)CC2)ccc1Cl |
| 890 | 400 | Cc1cc(N2CCN(C(=O)Nc3ncc(Cl)s3)CC2)ccc1Cl |
| 33000 | > 40000 | Cc1cnc(NC(=O)N2CCC(N(C)c3ccc(Cl)c(C)c3)C2)s1 (stereo not given) |
| > 40000 | 4200 | Cc1cnc(NC(=O)N2CCN(c3cc(C)c(C#N)cn3)CC2)s1 |
| > 40000 | 2000 | Cc1ccc(N2CCC(C(=O)Nc3ncc(Cl)s3)CC2)cc1Cl |
| 5500 | 2700 | Cc1cnc(NC(=O)N2CCN(c3ccc(Cl)cc3)CC2)s1 |
| 1500 | 1300 | Cc1ccc(N2CCN(C(=O)Nc3ncc(Cl)s3)C(C)C2)cc1Cl (stereo not given) |
| > 40000 | > 40000 | Cc1cnc(NC(=O)N2CCC[C@@H](Nc3ccc(Cl)c(C)c3)C2)s1 |
| 16000 | 12000 | Cc1cnc(NC(=O)N2CC(N(C)c3ccc(C)c(Cl)c3)C2)s1 |
| 820 | 750 | Cc1cnc2[nH]c(N3CCN(c4ccc(Cl)c(Cl)c4)CC3)nc2c1 |
| > 40000 | 730 | Cc1cnc(NC(=O)N2CCN(c3cc(C(F)(F)F)c(Cl)cn3)CC2)s1 |
| 34000 | 21000 | Cc1cnc2[nH]c(CCCOc3cnc(Cl)c(Cl)c3)nc2c1 |
| 3600 | 1500 | N#Cc1cnc(NC(=O)N2CCN(c3ccc(Cl)cc3)CC2)s1 |
| 12000 | 8900 | O=C(Nc1ncc(Cl)s1)N1CCN(c2cncnc2)CC1 |
| > 40000 | > 40000 | Cc1cnc(NC(=O)N2CCN(c3cncnc3)CC2)s1 |
| 800 | 310 | O=C(Nc1ncc(Cl)s1)N1CCN(c2ccc(Cl)c(Cl)c2)CC1 |
| 5000 | 470 | Cc1cnc(NC(=O)N2CCN(c3ccc(C)c(Cl)c3)CC2)s1 |

| EC50 (Cytomegalovirus) [nM] | EC50 [1] [nM] | SMILES |
| --- | --- | --- |
| 6500 | 8900 | Cc1cnc(NC(=O)N2CCN(c3ccc(C)c(Cl)c3)C(C)C2)s1 (stereo not given) |
| 130 | 1300 | Cc1cnc2[nH]c(N3CCN(c4cnc(Cl)c(Cl)c4)CC3)nc2c1 |
| 28000 | 14000 | Cc1cnc2[nH]c(CCCOc3ccc(Cl)c(Cl)c3)nc2c1 |
| 2800 | 930 | Cc1ccc(N(C)C2CN(C(=O)Nc3ncc(Cl)s3)C2)cc1Cl |
| 21000 | 10000 | Cc1cnc(NC(=O)N2CCN(c3cnc(C#N)c(C)c3)CC2)s1 |
| 4000 | 3400 | Cc1ccc(N2CCN(C(=O)Nc3nccs3)CC2)cc1Cl |
| 20000 | 20000 | Cc1cc(OC2CCN(C(=O)Nc3ncc(Cl)s3)CC2)ccc1Cl |
| 3700 | 820 | Cc1ccc(N2CCN(C(=O)Nc3ncc(Cl)s3)CC2C)cc1Cl (stereo not given) |
| 24000 | 12000 | Cc1cnc2[nH]c(CCCOc3ccc(C)c(Cl)c3)nc2c1 |
| 1200 | 3300 | Clc1cnc2[nH]c(CCCOc3ccc(Cl)c(Cl)c3)nc2c1 |
| > 40000 | > 40000 | Cc1ccc(OCCCc2nc3ncc(Cl)cc3s2)cc1Cl |
| 14000 | 6200 | Cc1cnc(NC(=O)N2CCC(Nc3ccc(Cl)c(C)c3)C2)s1 (stereo not given) |
| 1900 | 220 | Cc1cnc(NC(=O)N2CC(Oc3ccc(C)c(Cl)c3)C2)s1 |
| 1640 | 350 | O=C(Nc1ncc(Cl)s1)N1CCN(c2ccc(Cl)cc2)CC1 |
| 1900 | 530 | Cc1ccc(OC2CN(C(=O)Nc3ncc(Cl)s3)C2)cc1Cl |
|  | > 40000 | Cc1cc(OC2CCCN(C(=O)Nc3ncc(Cl)s3)C2)ccc1Cl (stereo not given) |
| 5200 | 2000 | Cc1cnc(NC(=O)N2CCC(Oc3ccc(Cl)c(C)c3)C2)s1 (stereo not given) |
| 490 | 930 | Cc1cnc(NC(=O)N2CCN(c3ccc(Cl)c(Cl)c3)CC2)s1 |
| 3000 | 670 | Cc1cnc(NC(=O)N2CC(Nc3ccc(C)c(Cl)c3)C2)s1 |
|  | > 40000 | Cc1cnc(NC(=O)N2CCC[C@H](Nc3ccc(Cl)c(C)c3)C2)s1 |
| 2500 | 1500 | Cc1cc(OC2CCN(C(=O)Nc3ncc(Cl)s3)C2)ccc1Cl (stereo not given) |
| > 40000 | > 40000 | Cc1cnc(NC(=O)N2CC3(C2)CN(c2ccc(C)c(Cl)c2)C3)s1 |

| EC50 (Cytomegalovirus) [nM] | EC50 [1] [nM] | SMILES |
| --- | --- | --- |
| 2300 | 710 | Cc1cc(N2CCN(C(=O)Nc3ncc(C#N)s3)CC2)ccc1Cl |
| 20000 | > 40000 | Cc1cnc(NC(=O)N2CCC(Nc3ccc(Cl)c(C)c3)CC2)s1 |
| > 40000 | > 40000 | Cc1cc(N[C@@H]2CCCN(C(=O)Nc3ncc(Cl)s3)C2)ccc1Cl |
| > 40000 | 2500 | Cc1cnc(NC(=O)C2CCN(c3ccc(C)c(Cl)c3)CC2)s1 |
| 20000 | 11000 | Cc1cc(N(C)C2CCN(C(=O)Nc3ncc(Cl)s3)C2)ccc1Cl (stereo not given) |
| > 40000 | > 40000 | Cc1cc(N(C)C2CCN(C(=O)Nc3ncc(Cl)s3)CC2)ccc1Cl |
| 570 | 300 | Cc1cnc(NC(=O)N2CCN(c3cnc(Cl)c(Cl)c3)CC2)s1 |
| 19000 | 16000 | Cc1ccc(N2CC3(CN(C(=O)Nc4ncc(Cl)s4)C3)C2)cc1Cl |
|  | > 40000 | Cc1cc(N[C@H]2CCCN(C(=O)Nc3ncc(Cl)s3)C2)ccc1Cl |
| 5200 | 5000 | Cc1cnc(NC(=O)N2CCN(c3ccc(C)c(Cl)c3)CC2C)s1 (stereo not given) |
| 480 | 700 | O=C(Nc1ncc(C(F)(F)F)s1)N1CCN(c2cnc(Cl)c(Cl)c2)CC1 |
| 2600 | 980 | Clc1cnc2[nH]c(N3CCN(c4ccc(Cl)c(Cl)c4)CC3)nc2c1 |
| > 2000 | 1300 | Cc1ccc(N2CCN(C(=O)Nc3ncc(C(F)(F)F)s3)CC2)cc1Cl |
| > 300 | 320 | Cc1ccc(N2CCN(c3nc4cc(Br)cnc4[nH]3)CC2)cc1Cl |
| 19000 | 22000 | Cc1ccc(N2CCCN(C(=O)Nc3ncc(Cl)s3)CC2)cc1Cl |
| 21000 | 10000 | Cc1cnc(NC(=O)N2CCCN(c3ccc(C)c(Cl)c3)CC2)s1 |
| > 40000 | > 40000 | Cc1cnc2sc(CCCOc3ccc(C)c(Cl)c3)nc2c1 |
| 40000 | > 40000 | Cc1cnc(NC(=O)N2CCC(Oc3ccc(Cl)c(C)c3)CC2)s1 |
| 2300 | 600 | Cc1cnc(NC(=O)N2CCN(c3ccc(Cl)c(C)c3)CC2)s1 |
| 1800 | 230 | Cc1cnc(NC(=O)N2CCN(c3cccc(C#N)c3)CC2)s1 |
